From ChEMBL document CHEMBL1145420, “On sampling of fragment space” (J Med Chem, 2007)

Tests used:
[1] = target: Dipeptidyl peptidase 8 (Homo sapiens) (UniProt Q6V1X1); assay: Inhibition of DPP8
[2] = target: Dipeptidyl peptidase 2 (Homo sapiens) (UniProt Q9UHL4); assay: Inhibition of QPP
[3] = target: Dipeptidyl peptidase 9 (Homo sapiens) (UniProt Q86TI2); assay: Inhibition of DPP9
[4] = target: T1, Prolyl endopeptidase (Homo sapiens) (UniProt P48147); assay: Inhibition of PEP
T1 sequence (whole entry): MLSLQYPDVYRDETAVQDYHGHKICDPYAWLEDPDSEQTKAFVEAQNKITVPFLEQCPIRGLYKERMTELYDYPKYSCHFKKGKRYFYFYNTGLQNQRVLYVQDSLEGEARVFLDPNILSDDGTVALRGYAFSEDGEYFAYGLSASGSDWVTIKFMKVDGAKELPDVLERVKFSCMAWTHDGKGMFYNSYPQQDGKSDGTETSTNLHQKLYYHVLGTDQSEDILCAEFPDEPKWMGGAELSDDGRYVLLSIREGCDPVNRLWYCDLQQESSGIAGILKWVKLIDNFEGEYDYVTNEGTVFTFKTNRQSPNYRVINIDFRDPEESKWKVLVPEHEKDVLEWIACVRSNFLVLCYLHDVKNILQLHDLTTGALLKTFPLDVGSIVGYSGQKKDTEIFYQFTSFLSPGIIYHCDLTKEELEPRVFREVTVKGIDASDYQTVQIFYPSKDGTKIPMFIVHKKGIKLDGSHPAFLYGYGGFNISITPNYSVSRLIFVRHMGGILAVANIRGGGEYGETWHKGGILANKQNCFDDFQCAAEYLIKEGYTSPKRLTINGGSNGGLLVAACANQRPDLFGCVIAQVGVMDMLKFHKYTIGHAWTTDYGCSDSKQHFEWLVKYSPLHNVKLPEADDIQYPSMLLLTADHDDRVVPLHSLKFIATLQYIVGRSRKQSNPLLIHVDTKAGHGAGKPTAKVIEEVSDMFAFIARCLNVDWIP

[5] = target: Prolyl endopeptidase FAP (Homo sapiens) (UniProt Q12884); assay: Inhibition of FAP
Sequence of Prolyl endopeptidase FAP (Homo sapiens) (Q12884 whole entry): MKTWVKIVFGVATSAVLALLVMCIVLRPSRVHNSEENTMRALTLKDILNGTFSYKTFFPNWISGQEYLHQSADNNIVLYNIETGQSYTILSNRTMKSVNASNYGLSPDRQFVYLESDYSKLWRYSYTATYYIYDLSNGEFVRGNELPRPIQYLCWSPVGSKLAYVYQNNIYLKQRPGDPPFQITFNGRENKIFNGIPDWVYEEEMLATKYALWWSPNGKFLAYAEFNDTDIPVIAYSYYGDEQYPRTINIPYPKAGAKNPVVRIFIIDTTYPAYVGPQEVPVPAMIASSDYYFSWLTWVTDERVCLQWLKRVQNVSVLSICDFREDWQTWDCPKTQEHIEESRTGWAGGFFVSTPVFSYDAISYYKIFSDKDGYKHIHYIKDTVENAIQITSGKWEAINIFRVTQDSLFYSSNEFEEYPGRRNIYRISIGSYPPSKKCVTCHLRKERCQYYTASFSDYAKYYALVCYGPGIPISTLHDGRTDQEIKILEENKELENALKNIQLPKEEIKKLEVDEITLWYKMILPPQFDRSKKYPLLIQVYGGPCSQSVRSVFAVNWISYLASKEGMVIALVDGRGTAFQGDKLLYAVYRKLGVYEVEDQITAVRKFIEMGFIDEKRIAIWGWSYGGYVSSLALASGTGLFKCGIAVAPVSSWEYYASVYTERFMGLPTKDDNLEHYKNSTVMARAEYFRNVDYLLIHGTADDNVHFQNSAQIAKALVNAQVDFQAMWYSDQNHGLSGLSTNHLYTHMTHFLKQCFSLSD

Sequence of Dipeptidyl peptidase 8 (Homo sapiens) (Q6V1X1 whole entry, looked up): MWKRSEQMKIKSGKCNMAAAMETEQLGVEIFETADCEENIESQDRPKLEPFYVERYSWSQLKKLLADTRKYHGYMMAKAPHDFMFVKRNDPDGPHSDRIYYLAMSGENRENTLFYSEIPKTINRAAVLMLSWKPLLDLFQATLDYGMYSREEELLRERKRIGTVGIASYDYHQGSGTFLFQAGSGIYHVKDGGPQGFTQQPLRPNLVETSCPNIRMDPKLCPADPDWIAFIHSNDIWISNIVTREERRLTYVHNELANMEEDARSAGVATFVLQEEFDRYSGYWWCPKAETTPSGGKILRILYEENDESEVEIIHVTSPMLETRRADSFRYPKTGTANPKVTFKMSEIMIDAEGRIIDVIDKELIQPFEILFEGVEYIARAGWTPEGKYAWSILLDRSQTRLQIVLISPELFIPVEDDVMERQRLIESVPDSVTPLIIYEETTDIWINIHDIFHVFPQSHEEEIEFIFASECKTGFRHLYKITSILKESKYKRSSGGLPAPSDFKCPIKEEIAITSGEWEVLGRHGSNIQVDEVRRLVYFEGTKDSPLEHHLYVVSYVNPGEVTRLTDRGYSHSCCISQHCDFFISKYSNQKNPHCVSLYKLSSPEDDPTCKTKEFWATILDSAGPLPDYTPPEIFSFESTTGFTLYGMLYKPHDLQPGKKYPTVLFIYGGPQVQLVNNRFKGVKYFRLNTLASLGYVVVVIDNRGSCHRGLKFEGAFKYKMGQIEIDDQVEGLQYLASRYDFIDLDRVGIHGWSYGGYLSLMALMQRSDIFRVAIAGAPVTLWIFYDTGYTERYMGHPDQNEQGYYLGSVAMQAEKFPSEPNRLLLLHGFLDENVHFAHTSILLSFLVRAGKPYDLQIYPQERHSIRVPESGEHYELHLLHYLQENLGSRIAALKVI
Sequence of Dipeptidyl peptidase 9 (Homo sapiens) (Q86TI2 2-863 limits assumed): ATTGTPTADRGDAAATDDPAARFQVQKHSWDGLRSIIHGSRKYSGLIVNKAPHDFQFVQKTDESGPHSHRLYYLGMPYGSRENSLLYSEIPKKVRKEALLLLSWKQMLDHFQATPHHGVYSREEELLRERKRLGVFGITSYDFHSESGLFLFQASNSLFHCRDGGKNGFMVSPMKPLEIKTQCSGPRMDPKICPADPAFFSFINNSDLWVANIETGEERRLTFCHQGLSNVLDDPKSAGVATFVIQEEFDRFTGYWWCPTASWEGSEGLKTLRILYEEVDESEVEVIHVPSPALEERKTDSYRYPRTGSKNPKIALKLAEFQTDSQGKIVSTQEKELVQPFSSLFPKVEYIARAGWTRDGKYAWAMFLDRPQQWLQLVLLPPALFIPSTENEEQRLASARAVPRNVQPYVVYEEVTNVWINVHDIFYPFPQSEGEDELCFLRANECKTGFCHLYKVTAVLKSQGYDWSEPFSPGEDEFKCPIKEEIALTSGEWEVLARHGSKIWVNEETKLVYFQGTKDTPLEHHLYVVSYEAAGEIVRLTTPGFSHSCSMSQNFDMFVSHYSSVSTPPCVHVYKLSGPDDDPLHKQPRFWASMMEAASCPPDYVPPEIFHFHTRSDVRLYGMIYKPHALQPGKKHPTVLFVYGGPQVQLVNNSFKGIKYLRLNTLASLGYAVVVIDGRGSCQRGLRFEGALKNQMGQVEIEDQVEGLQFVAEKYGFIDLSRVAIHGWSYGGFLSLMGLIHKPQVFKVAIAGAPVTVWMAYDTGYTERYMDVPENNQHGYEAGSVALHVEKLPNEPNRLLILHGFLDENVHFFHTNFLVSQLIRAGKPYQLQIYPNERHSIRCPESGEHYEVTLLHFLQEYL

| SMILES | Activity [1] [µM] | Activity [2] [µM] | Activity [3] [µM] | Activity [4] [µM] | Activity [5] [µM] |
| --- | --- | --- | --- | --- | --- |
| N[C@@H](CC(=O)N1CCC[C@H]1C(=O)NCc1cc(Cl)ccc1OCC(=O)NC1CC1)Cc1ccccc1 | > 10 | 66 | > 100 | – | – |
| CNC(=O)C[C@H](N)Cc1ccccc1 | 460 | 680 | > 1000 | > 1000 | > 1000 |
